How the values were obtained:
[1] = molecular target: T1, aldose reductase (Homo sapiens, UniProt P15121); assay: inhibition of aldose reductase enzyme activity (procedure of S. Hayman et al. as modified by K. Sestanj et al.); assay type: biochemical; conditions: for inhibition at 10 µM: 10^-5 M, partially purified aldose reductase from human placenta; for aldose reductase inhibitor potency (in words): no concentration given
T1 construct: partially purified aldose reductase enzyme obtained from human placenta; from tissue; host or cells: human placenta
Description: (§1) The activity of the compounds of the present invention, as agents for the control of chronic diabetic complications, is determined by their ability to successfully pass one or more of the following standard biological or pharmacological tests, viz., (1) measuring their ability to inhibit the enzyme activity of isolated aldose reductase; (2) measuring their ability to reduce or inhibit sorbitol accumulation in the sciatic nerve of acutely streptozotocinized (i.e., diabetic) rats; (3) measuring their ability to reverse already-elevated sorbitol levels in the sciatic nerve and lens of chronic streptozotocin-induced diabetic rats; (4) measuring their ability to prevent or inhibit galactitol formation in the lens of acutely galactosemic rats, and (5) measuring their ability to delay cataract formation and reduce the severity of lens opacities in chronic galactosemic rats.
The following oxindole-1-alkanoic acid final products of Examples 1-12, respectively, were tested at a concentration level of 10^-5 M for their ability to reduce or inhibit aldose reductase enzyme activity via the procedure of S. Hayman et al., as described in the Journal of Biological Chemistry, Vol. 240, p. 877 (1965) and as modified by K. Sestanj et al. in U.S. Pat. No. 3,821,383. In every case, the substrate employed was partially purified aldose reductase enzyme obtained from human placenta.

[2] = test system: sorbitol levels in diabetic rats; assay: inhibition of sorbitol formation in diabetic rats, oral route; assay type: in vivo, rat; conditions: dose levels ranging from 0.75 mg./kg. to 20 mg./kg.
From the text: As previously indicated, the 3-substituted 2-oxo-indoline-1-alkanoic acid compounds of this invention are readily adapted to therapeutic use as aldose reductase inhibitors for the control of chronic diabetic complications, in view of their ability to reduce lens sorbitol levels in diabetic subjects to a statistically significant degree. […] Furthermore, the herein described compounds of this invention can be administered by either the oral or parenteral routes of administration. […]
as §1

| SMILES | inhibition at 10 µM [1] | aldose reductase inhibitor potency (in words) [1] | inhibition of the formation of sorbitol levels in diabetic rats (in words) [2] |
| --- | --- | --- | --- |
| CC(c1ccc(Cl)c(Cl)c1)C1(C)C(=O)N(CC(=O)O)c2ccccc21 (stereo not drawn) [Example 11, 3-(3,4-dichloro-α-methylbenzyl)-3-methyl-2-oxo-indoline-1-acetic acid] | 72% |  |  |
| CC(c1ccc(Cl)c(Cl)c1)C1C(=O)N(CC(=O)O)c2ccccc21 (stereo not drawn) [Example 7, 3-(3,4-dichloro-α-methylbenzyl)-2-oxo-indoline-1-acetic acid] | 94% | highly potent |  |
| O=C(O)CN1C(=O)C2(Cc3ccc(Cl)cc3C2)c2ccccc21 (stereo not drawn) [Example 9, 5(6)-chloro-1,2-dihydro-spiro-inden[2,3']indolin-2'-one-1'-acetic acid] | 71% |  |  |
| O=C(O)CN1C(=O)C(Cc2ccc(Cl)c(Cl)c2)(Cc2ccc(Cl)c(Cl)c2)c2ccccc21 [Example 10, 3,3-di(3,4-dichlorobenzyl)-2-oxo-indoline-1-acetic acid] | 20% |  |  |
| O=C(O)CN1C(=O)C(Cc2ccc(Cl)c(Cl)c2)c2ccccc21 (stereo not drawn) [Example 1, 3-(3,4-dichlorobenzyl)-2-oxo-indoline-1-acetic acid] | 92% | highly potent | significantly high degree |
| O=C(O)CN1C(=O)C2(Cc3ccccc3C2)c2ccccc21 [Example 8, 1,2-dihydro-spiro-inden[2,3']indolin-2'-one-1'-acetic acid] | 66% |  |  |
| CC(C(=O)O)N1C(=O)C(Cc2ccc(Cl)c(Cl)c2)c2ccccc21 (stereo not drawn) [Example 6, 3-(3,4-dichlorobenzyl)-2-oxo-indoline-1-(α-methyl)acetic acid] | 25% |  |  |
| COc1ccc2c(c1)N(CC(=O)O)C(=O)C2Cc1ccc(Cl)c(Cl)c1 (stereo not drawn) [Example 5, 3-(3,4-dichlorobenzyl)-6-methoxy-2-oxo-indoline-1-acetic acid] | 81% | highly potent |  |
| O=C(O)CN1C(=O)C(Cc2ccc(Cl)c(Cl)c2)c2ccc(F)cc21 (stereo not drawn) [Example 3, 3-(3,4-dichlorobenzyl)-6-fluoro-2-oxo-indoline-1-acetic acid] | 68% |  |  |
| O=C(O)CN1C(=O)C(Cc2ccc(Cl)c(Cl)c2)c2ccc(O)cc21 (stereo not drawn) [Example 12, 3-(3,4-dichlorobenzyl)-6-hydroxy-2-oxo-indoline-1-acetic acid] | 79% | highly potent |  |
| O=C(O)CN1C(=O)C(Cc2ccc(Cl)c(Cl)c2)c2cc(Cl)ccc21 (stereo not drawn) [Example 2, 5-chloro-3-(3,4-dichlorobenzyl)-2-oxo-indoline-1-acetic acid] | 88% | highly potent |  |
| COc1cc2c(cc1OC)N(CC(=O)O)C(=O)C2Cc1ccc(Cl)c(Cl)c1 (stereo not drawn) [Example 4, 3-(3,4-dichlorobenzyl)-5,6-dimethoxy-2-oxo-indoline-1-acetic acid] | 55% |  |  |

— patent publication US5064852A, “Indolinone derivatives” (Pfizer Inc., priority 1990, dated 1991)
